Source: US20170008888A1 (KYORIN PHARMACEUTICAL CO., LTD., priority 2014, published 2017)

Legend:
Format in all cases: binding
[1] = target: T1, TAO2 (Homo sapiens, UniProt Q9UL54); test: Probe-based (AX9989) kinase profiling in Jurkat lysate: TAO2; conditions: read-out: Kinase inhibition % at indicated screening concentration: TAO2; for inhibition at 1 µM: screening concentration 1.0 μM
T1 construct: screened for activity against several kinases in Jurkat cells; endogenous in cells; host or cells: Jurkat cell lysate
T1 sequence (Q9UL54 1-1235): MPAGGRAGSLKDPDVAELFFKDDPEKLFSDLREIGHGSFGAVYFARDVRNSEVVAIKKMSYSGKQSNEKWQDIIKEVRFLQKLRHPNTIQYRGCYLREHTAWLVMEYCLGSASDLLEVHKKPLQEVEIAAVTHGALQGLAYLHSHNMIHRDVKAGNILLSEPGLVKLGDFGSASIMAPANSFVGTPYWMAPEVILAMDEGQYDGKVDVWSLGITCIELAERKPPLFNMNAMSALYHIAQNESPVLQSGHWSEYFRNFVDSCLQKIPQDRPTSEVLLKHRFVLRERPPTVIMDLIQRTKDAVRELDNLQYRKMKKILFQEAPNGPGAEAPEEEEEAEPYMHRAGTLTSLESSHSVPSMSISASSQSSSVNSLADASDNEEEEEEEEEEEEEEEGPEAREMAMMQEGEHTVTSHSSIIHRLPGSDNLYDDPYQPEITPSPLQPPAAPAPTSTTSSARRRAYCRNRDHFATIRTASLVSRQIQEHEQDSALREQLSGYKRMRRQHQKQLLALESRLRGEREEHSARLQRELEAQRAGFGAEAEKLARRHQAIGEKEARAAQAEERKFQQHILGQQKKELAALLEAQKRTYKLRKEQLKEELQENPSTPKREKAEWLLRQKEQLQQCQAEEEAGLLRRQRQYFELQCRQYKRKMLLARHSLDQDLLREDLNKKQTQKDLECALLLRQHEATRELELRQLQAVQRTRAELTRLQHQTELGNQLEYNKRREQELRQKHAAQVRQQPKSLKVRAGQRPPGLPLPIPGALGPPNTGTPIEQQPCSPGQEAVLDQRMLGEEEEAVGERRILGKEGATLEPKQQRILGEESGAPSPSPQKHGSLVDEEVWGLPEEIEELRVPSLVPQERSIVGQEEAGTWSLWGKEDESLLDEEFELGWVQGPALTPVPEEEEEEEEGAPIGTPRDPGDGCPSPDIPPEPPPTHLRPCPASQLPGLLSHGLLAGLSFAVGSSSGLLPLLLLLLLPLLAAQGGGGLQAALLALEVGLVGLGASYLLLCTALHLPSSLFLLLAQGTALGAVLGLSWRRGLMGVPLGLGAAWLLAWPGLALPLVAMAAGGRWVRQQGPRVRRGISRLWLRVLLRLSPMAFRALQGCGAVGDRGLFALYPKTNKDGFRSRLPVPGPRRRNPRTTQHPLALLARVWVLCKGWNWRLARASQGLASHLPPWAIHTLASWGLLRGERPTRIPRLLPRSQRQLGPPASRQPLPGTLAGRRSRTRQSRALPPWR
How it was run: (§1)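 Percent inhibition was derived from reduced LC/MS fragment intensities of probe-labeled peptides relative to compound-free controls. Before labeling with 5 μM AX9989, Mn2+-supplemented (20 mM) Jurkat lysate was exposed to compound for 15 min at room temperature.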

[2] = system: AurB or AurC; test: Probe-based (AX9989) kinase profiling in Jurkat lysate: AurB or AurC
How it was run: as §1

[3] = target: T2, BRD4 bromodomain domain I [BRD4(1)] (Homo sapiens, UniProt O60885); test: BRD4 bromodomain domain 1 inhibition assay (TR-FRET); conditions: screening concentration 10 μM
T2 construct: BRD4 bromodomain domain I [BRD4(1)]; purchased Cayman Chemicals
Experimental: The inhibitory activity of test compounds on the bromodomain, BRD4 bromodomain domain I [BRD4(1)], were determined via TR-FRET after a slight modification of the manufacturer's protocol (Cayman Chemicals, Ann Arbor, Mich.). Briefly, compounds were diluted to a 20× ([…]) concentration in DMSO. 100 nL of 20× compounds were then dry stamped into triplicate wells of black, low volume 384 well plates (Aurora Biotechnologies, Carlsbad, Calif.) using the Mosquito liquid handler (TPP Labtech, Melbourn, UK). 20× compounds were then diluted to a 4× (40 μM) concentration in Assay Buffer to result in 2% DMSO content. […] JQ1 at 10 μM or 0.5% DMSO final concentrations were used as the positive and negative controls, respectively, to set the assay window. The fluorescence was read in a time-resolved format on the Biotec Synergy 2 plate reader by exciting the signal at 340 nm and reading emissions at 620 and 670, using a 100 μs delay and 200 μs read window. […] Briefly, TR-FRET ratio values were normalized to the average TR-FRET ratio value given by 10 μM JQ1. […]

[4] = system: AMPKa1 or AMPKa2; test: Probe-based (AX9989) kinase profiling in Jurkat lysate: AMPKa1 or AMPKa2
How it was run: as §1

[5] = target: T3, AurA (Homo sapiens, UniProt O14965); test: Probe-based (AX9989) kinase profiling in Jurkat lysate: AurA; conditions: read-out: Kinase inhibition % at indicated screening concentration: AurA; for inhibition at 1 µM: screening concentration 1.0 μM
T3 construct: screened for activity against several kinases in Jurkat cells; endogenous in cells; host or cells: Jurkat cell lysate
T3 sequence (O14965 1-403): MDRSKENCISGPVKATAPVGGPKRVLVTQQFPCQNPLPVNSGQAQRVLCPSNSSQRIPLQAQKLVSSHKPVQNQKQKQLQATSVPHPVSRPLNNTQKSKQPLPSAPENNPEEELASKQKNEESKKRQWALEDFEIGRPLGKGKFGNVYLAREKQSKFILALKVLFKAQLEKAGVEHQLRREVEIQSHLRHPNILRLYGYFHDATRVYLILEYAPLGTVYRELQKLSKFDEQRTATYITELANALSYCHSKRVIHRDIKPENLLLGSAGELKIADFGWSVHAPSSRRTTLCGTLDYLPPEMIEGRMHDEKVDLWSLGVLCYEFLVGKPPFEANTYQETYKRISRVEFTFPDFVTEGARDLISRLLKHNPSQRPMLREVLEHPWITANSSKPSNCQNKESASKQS
How it was run: as §1

[6] = system: ABL or ARG; test: Probe-based (AX9989) kinase profiling in Jurkat lysate: ABL or ARG
How it was run: as §1

[7] = target: T4, ACK (Homo sapiens, UniProt Q07912); test: Probe-based (AX9989) kinase profiling in Jurkat lysate: ACK; conditions: read-out: Kinase inhibition % at indicated screening concentration: ACK; for inhibition at 1 µM: screening concentration 1.0 μM
T4 construct: screened for activity against several kinases in Jurkat cells; endogenous in cells; host or cells: Jurkat cell lysate
How it was run: as §1

[8] = target: T5, JAK1 (Homo sapiens, UniProt P23458); test: Probe-based (AX9989) kinase profiling in Jurkat lysate: JAK1; conditions: read-out: Kinase inhibition % at indicated screening concentration: JAK1; for inhibition at 1 µM: screening concentration 1.0 μM
T5 construct: screened for activity against several kinases in Jurkat cells; endogenous in cells; host or cells: Jurkat cell lysate
How it was run: as §1

[9] = target: T6, ERK5 (Homo sapiens, UniProt Q13164); test: Probe-based (AX9989 acyl phosphate ATP probe) kinase profiling in Jurkat lysate: ERK5; conditions: for IC50: calculated from percent inhibition of AX9989 labeling and the screening concentration, Jurkat lysate; for inhibition at 1 µM: screening concentration 1.0 μM
T6 construct: screened for activity against several kinases in Jurkat cells; endogenous in cells; host or cells: Jurkat cell lysate
How it was run: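 ERK5 IC50 values came from percent inhibition at the screening concentration, measured as loss of LC/MS signal of probe-labelled active-site peptides. Compound was added for 15 min at room temperature to Jurkat lysate (5 mg/ml, 20 mM MnCl2) before labelling with AX9989 ATP acyl phosphate probe at 5 μM.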

[10] = read-out: Kinase inhibition % at indicated screening concentration: ERK5

T6 sequence (Q13164 whole entry): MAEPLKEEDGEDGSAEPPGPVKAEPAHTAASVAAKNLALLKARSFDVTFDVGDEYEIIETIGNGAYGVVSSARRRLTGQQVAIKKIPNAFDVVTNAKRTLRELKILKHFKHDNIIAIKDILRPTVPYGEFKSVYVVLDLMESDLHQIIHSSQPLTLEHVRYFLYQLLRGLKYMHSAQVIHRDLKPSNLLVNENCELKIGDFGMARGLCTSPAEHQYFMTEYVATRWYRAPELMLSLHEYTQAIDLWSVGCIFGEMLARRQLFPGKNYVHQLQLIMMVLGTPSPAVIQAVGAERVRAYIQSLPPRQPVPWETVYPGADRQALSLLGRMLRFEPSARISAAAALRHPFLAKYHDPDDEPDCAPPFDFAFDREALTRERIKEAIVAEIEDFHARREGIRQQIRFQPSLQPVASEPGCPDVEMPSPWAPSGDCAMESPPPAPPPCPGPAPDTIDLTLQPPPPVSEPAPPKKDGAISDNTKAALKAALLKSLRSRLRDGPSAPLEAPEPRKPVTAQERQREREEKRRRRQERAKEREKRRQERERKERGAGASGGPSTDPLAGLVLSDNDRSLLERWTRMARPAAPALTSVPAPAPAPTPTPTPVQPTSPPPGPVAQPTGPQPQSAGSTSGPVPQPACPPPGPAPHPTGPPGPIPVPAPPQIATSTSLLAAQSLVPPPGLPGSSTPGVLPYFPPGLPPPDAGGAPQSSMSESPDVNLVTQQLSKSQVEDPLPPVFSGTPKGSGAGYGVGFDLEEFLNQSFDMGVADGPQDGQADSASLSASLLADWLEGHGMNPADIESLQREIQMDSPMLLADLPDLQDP
T4 sequence (Q07912 whole entry): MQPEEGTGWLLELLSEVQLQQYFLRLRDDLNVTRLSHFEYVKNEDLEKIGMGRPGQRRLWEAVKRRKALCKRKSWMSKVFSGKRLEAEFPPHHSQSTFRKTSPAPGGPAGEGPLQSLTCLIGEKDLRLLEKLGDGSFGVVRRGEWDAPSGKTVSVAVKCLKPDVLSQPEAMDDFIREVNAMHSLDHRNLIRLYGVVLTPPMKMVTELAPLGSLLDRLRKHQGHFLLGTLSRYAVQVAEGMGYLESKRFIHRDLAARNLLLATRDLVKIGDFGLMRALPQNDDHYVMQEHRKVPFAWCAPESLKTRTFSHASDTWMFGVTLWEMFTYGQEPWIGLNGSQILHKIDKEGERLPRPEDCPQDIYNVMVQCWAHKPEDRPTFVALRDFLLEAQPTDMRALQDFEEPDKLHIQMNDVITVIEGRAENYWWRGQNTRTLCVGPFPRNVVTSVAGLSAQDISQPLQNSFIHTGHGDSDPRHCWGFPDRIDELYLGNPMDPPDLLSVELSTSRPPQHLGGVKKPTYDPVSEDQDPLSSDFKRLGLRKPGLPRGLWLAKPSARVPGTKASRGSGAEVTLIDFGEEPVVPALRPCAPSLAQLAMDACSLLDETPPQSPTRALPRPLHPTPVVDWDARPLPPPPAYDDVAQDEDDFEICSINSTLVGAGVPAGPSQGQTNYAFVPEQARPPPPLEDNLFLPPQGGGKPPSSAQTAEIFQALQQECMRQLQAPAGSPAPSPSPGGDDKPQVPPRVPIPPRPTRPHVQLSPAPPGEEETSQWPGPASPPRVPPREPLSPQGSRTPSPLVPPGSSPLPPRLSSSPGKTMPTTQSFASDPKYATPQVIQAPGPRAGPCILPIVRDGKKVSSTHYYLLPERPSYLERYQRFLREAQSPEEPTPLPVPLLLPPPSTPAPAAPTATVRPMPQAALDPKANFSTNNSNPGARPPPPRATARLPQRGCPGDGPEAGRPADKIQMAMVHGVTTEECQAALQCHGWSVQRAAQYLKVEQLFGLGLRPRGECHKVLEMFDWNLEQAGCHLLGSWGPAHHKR
T5 sequence (P23458 whole entry): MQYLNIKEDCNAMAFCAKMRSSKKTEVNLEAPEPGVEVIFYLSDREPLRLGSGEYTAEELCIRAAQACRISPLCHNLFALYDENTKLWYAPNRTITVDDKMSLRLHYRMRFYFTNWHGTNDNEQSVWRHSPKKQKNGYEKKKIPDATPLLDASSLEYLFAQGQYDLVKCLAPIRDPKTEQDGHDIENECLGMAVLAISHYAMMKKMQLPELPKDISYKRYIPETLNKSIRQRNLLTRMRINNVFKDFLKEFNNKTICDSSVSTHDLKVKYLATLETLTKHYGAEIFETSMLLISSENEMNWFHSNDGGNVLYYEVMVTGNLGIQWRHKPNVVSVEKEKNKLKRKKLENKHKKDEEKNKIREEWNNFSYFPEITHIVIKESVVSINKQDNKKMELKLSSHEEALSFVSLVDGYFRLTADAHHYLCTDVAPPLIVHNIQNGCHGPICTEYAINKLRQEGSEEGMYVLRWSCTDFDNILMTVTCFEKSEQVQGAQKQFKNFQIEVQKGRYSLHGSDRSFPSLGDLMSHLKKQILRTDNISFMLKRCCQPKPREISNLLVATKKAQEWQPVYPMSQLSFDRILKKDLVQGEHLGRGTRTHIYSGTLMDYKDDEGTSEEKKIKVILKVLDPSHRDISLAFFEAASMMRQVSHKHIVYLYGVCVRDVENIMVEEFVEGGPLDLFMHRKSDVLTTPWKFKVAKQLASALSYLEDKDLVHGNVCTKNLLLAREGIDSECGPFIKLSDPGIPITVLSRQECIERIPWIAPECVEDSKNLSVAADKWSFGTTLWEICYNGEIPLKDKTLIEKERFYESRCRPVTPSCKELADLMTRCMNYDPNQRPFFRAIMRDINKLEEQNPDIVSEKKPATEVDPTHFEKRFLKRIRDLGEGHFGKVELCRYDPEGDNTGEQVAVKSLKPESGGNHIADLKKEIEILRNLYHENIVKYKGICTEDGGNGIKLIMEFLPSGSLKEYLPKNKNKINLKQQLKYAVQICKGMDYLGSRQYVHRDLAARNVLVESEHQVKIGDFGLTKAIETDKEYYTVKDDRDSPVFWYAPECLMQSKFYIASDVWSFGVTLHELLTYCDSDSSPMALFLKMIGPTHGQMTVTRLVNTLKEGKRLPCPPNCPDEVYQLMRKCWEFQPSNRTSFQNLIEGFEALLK

| SMILES | inhibition at 1 µM [1] | Kinase inhibition % at indicated screening concentration: AurB or AurC ([2]; screening concentration 1.0 μM) | inhibition at 10 µM [3] | Kinase inhibition % at indicated screening concentration: AMPKa1 or AMPKa2 ([4]; screening concentration 1.0 μM) | inhibition at 1 µM [5] | Kinase inhibition % at indicated screening concentration: ABL or ARG ([6]; screening concentration 1.0 μM) | inhibition at 1 µM [7] | inhibition at 1 µM [8] | IC50 [9] | inhibition at 1 µM [9, 10] | inhibition at 0.1 µM ([1]; screening concentration 0.1 μM) | Kinase inhibition % at indicated screening concentration: AurB or AurC ([2]; screening concentration 0.1 μM) | Kinase inhibition % at indicated screening concentration: AMPKa1 or AMPKa2 ([4]; screening concentration 0.1 μM) | inhibition at 0.1 µM ([5]; screening concentration 0.1 μM) | Kinase inhibition % at indicated screening concentration: ABL or ARG ([6]; screening concentration 0.1 μM) | inhibition at 0.1 µM ([7]; screening concentration 0.1 μM) | inhibition at 0.1 µM ([8]; screening concentration 0.1 μM) | inhibition at 0.1 µM ([9]; screening concentration 0.1 μM, read-out: Kinase inhibition % at indicated screening concentration: ERK5) |
| --- | --- | --- | --- | --- | --- | --- | --- | --- | --- | --- | --- | --- | --- | --- | --- | --- | --- | --- |
| CCN(CC)CCNC(=O)c1cccc(Nc2cc3c(cn2)N(C)C(=O)c2ccccc2N3C)c1OC [Compound 29] | ≤ 35% | E (E is ≦35%) | < 70% | E (E is ≦35%) | ≤ 35% | E (E is ≦35%) | ≤ 35% | ≤ 35% | 101 to 500 nM | 50 to 75% | – | – | – | – | – | – | – | – |
| COc1cc(C(=O)N2CCC(N(C)C)C2)c(F)cc1Nc1cc2c(cn1)N(C)C(=O)c1ccccc1N2C (centres unmarked) [Compound 90] | – | – | < 70% | – | – | – | – | – | 101 to 500 nM | – | ≤ 35% | E (E is ≦35%) | E (E is ≦35%) | ≤ 35% | E (E is ≦35%) | ≤ 35% | ≤ 35% | ≤ 35% |

Now from value to compound:

| inhibition at 1 µM [1] | Kinase inhibition % at indicated screening concentration: AurB or AurC ([2]; screening concentration 1.0 μM) | inhibition at 10 µM [3] | Kinase inhibition % at indicated screening concentration: AMPKa1 or AMPKa2 ([4]; screening concentration 1.0 μM) | inhibition at 1 µM [5] | Kinase inhibition % at indicated screening concentration: ABL or ARG ([6]; screening concentration 1.0 μM) | inhibition at 1 µM [7] | inhibition at 1 µM [8] | IC50 [9] | inhibition at 1 µM [9, 10] | inhibition at 0.1 µM ([1]; screening concentration 0.1 μM) | Kinase inhibition % at indicated screening concentration: AurB or AurC ([2]; screening concentration 0.1 μM) | Kinase inhibition % at indicated screening concentration: AMPKa1 or AMPKa2 ([4]; screening concentration 0.1 μM) | inhibition at 0.1 µM ([5]; screening concentration 0.1 μM) | Kinase inhibition % at indicated screening concentration: ABL or ARG ([6]; screening concentration 0.1 μM) | inhibition at 0.1 µM ([7]; screening concentration 0.1 μM) | inhibition at 0.1 µM ([8]; screening concentration 0.1 μM) | inhibition at 0.1 µM ([9]; screening concentration 0.1 μM, read-out: Kinase inhibition % at indicated screening concentration: ERK5) | SMILES |
| --- | --- | --- | --- | --- | --- | --- | --- | --- | --- | --- | --- | --- | --- | --- | --- | --- | --- | --- |
| ≤ 35% | E (E is ≦35%) | < 70% | E (E is ≦35%) | ≤ 35% | E (E is ≦35%) | ≤ 35% | ≤ 35% | 101 to 500 nM | 75 to 90% | – | – | – | – | – | – | – | – | CN1C(=O)c2ccccc2N(C)c2cc(NC3CCC(N)CC3)ncc21 (centres unmarked) [Compound 79] |
| ≤ 35% | E (E is ≦35%) | < 70% | E (E is ≦35%) | ≤ 35% | E (E is ≦35%) | ≤ 35% | ≤ 35% | > 500 nM | ≤ 35% | – | – | – | – | – | – | – | – | COc1c(Nc2cc3c(cn2)N(C)C(=O)c2ccccc2N3C)cccc1C(=O)O [Compound 9] |
| ≤ 35% | E (E is ≦35%) | < 70% | E (E is ≦35%) | ≤ 35% | E (E is ≦35%) | ≤ 35% | ≤ 35% | > 500 nM | 35 to 50% | – | – | – | – | – | – | – | – | CCOc1cc(C(=O)Nc2ccncc2)ccc1Nc1cc2c(cn1)N(C)C(=O)c1ccccc1N2C [Compound 7] |
